Measurements reported in publication PMC12064818, “A general assay platform to study protein pharmacology using ligand-dependent structural dynamics” (Nature Communications, 2025).

Experiments:
[1] = biological target: T1, FLuc-C-NLuc (firefly luciferase) (Photinus pyralis, UniProt P08659, form not given/L550V); experiment: SDR assay, FLuc-C-NLuc; settings: Log[Compound]; for SDR+ATP: 10 mM ATP; for SDR: absence of ATP
[2] = biological target: T1, FLuc-C-NLuc (firefly luciferase); experiment: Firefly luciferase (FLuc) enzymatic luminescence assay, FLuc-C-NLuc; format: biochemical; set-up: key to Enz: % normalized; no enzyme control = 100% inhibition, DMSO = 0; settings: Log[Compound]
Experimental: The enzyme activity of FLuc-N-HiBiT, FLuc-C-HiBiT, and FLuc-C-NLuc was measured similar to P. pyralis firefly luciferase (FLuc) as previously described. […] Compounds and controls were added to each plate as described in Supplementary Data 8 with a Hornet pintool system (Wako Automation). Compounds were incubated with respective enzymes for 30–60 min at room temperature protected from light and covered by solid metal lid to prevent evaporation. […] Luciferin was incubated with FLuc enzyme for 5 min before FLuc activity was then measured on a ViewLux CCD imager (PerkinElmer), with exposure times up to ten seconds with medium to high gain settings. Data were normalized to average no enzyme control as 100% enzyme inhibition and average DMSO neutral control. See Supplementary Table 4 for additional details.
Supplementary Table 4. Protocol for Firefly luciferase (FLuc) and NanoLuc (NLuc) enzymatic
Supplementary Table 4: Protocol for Firefly luciferase (FLuc) and NanoLuc (NLuc) enzym atic lum inescence assay
Firefly luciferase (FLuc) enzym atic lum inescence assay
Sequence Param eter Value Description
No enzym e control (colum n 1) and enzym e solution (1- 10 nM FLuc enzym e) in FLuc assay
1 Reagent 4 µLbuffer; white/solid bottom , m edium bind, high base plates (Greiner), dispensed with BioRaptr
com pounds transferred to respective colum ns with Pintool
2b Test Com pounds 23 nLconcentration range) in colum ns 5- 48; com pounds transferred to respective wells with
3 Incubation 30 m in Incubate enzym e + com pounds at am bient tem p for 30 m in, protected from light
4 Reagent 3 µLAdd 3 µL of D-luciferin substrate solution to each well (final concentration 10 µM); dispensed
5 Detector ViewLux Read plate lum inescence (Exposure = 1- 10 sec; Gain = Medium -high; Speed = Slow;
Dispensing solution was diluted in 1X PBS, pH 7.4. […]

T1 sequence (P08659 2-550 L550V, form open): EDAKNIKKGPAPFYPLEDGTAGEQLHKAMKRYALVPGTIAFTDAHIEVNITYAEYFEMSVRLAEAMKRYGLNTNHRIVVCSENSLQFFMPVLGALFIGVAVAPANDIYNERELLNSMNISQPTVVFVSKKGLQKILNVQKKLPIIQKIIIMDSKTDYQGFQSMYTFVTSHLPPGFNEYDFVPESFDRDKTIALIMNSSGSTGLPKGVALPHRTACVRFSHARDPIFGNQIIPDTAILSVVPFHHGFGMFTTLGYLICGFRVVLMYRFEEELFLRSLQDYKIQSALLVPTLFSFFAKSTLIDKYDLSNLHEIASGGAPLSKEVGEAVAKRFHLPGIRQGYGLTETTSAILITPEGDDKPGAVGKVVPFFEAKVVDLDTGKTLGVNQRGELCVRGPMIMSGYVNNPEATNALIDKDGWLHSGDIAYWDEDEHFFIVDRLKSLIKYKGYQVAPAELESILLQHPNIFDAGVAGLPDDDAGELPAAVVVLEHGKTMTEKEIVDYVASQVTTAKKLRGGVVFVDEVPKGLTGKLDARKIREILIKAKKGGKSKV

SMILES: O=C(Nc1cccc(F)c1)C1CCN(C(=O)c2ncn3c2COC(c2ccccc2)C3)CC1 (stereo not drawn) [NCGC00449914]
- SDR+ATP ([1]; M -4.48): 74.59
- SDR ([1]; M -4.48): 9.87
- SDR+ATP ([1]; M -4.96): 66.41
- SDR ([1]; M -4.96): 8.14
- SDR+ATP ([1]; M -5.44): 59.05
- SDR ([1]; M -5.44): 7.78
- SDR+ATP ([1]; M -5.91): 45.60
- SDR ([1]; M -5.91): 15.68
- SDR+ATP ([1]; M -6.39): 30.44
- SDR ([1]; M -6.39): 7.72
- SDR+ATP ([1]; M -6.87): 16.83
- SDR ([1]; M -6.87): 9.23
- SDR+ATP ([1]; M -7.35): 11.29
- SDR ([1]; M -7.35): 8.67
- SDR+ATP ([1]; M -7.82): 8.00
- SDR ([1]; M -7.82): 8.73
- SDR+ATP ([1]; M -8.30): 7.51
- SDR ([1]; M -8.30): 7.88
- SDR+ATP ([1]; M -8.78): 6.04
- SDR ([1]; M -8.78): 10.30
- SDR+ATP ([1]; M -9.25): 5.78
- SDR ([1]; M -9.25): 9.59
- Enz ([2]; M -4.48): -94.95
- Enz ([2]; M -4.96): -88.02
- Enz ([2]; M -5.44): -77.30
- Enz ([2]; M -5.91): -54.79
- Enz ([2]; M -6.39): -35.39
- Enz ([2]; M -6.87): -17.29
- Enz ([2]; M -7.35): -8.21
- Enz ([2]; M -7.82): -6.89
- Enz ([2]; M -8.30): -1.14
- Enz ([2]; M -8.78): 0.15
- Enz ([2]; M -9.25): -6.05

SMILES: CC1CCC(NC(=O)C2CCN(C(=O)c3ncn4c3COC(c3ccc(Cl)cc3)C4)CC2)CC1 (stereo not drawn) [NCGC00449845]
- SDR+ATP ([1]; M -4.48): 6.40
- SDR ([1]; M -4.48): 1.49
- SDR+ATP ([1]; M -4.96): 2.52
- SDR ([1]; M -4.96): 2.34
- SDR+ATP ([1]; M -5.44): 1.90
- SDR ([1]; M -5.44): 1.62
- SDR+ATP ([1]; M -5.91): 1.22
- SDR ([1]; M -5.91): 2.01
- SDR+ATP ([1]; M -6.39): 1.15
- SDR ([1]; M -6.39): 2.08
- SDR+ATP ([1]; M -6.87): -0.36
- SDR ([1]; M -6.87): 2.37
- SDR+ATP ([1]; M -7.35): 0.68
- SDR ([1]; M -7.35): 2.03
- SDR+ATP ([1]; M -7.82): -0.0316
- SDR ([1]; M -7.82): 3.50
- SDR+ATP ([1]; M -8.30): 1.78
- SDR ([1]; M -8.30): 4.33
- SDR+ATP ([1]; M -8.78): 0.25
- SDR ([1]; M -8.78): 3.88
- SDR+ATP ([1]; M -9.25): 0.08
- SDR ([1]; M -9.25): 3.41
- Enz ([2]; M -4.48): -0.56
- Enz ([2]; M -4.96): 2.86
- Enz ([2]; M -5.44): 3.07
- Enz ([2]; M -5.91): 4.57
- Enz ([2]; M -6.39): 5.59
- Enz ([2]; M -6.87): 3.54
- Enz ([2]; M -7.35): 4.64
- Enz ([2]; M -7.82): 4.98
- Enz ([2]; M -8.30): 5.03
- Enz ([2]; M -8.78): 3.56
- Enz ([2]; M -9.25): 2.70

SMILES: CC(NC(=O)C1CCN(C(=O)c2ncn3c2COC(c2ccc(F)cc2)C3)CC1)c1ccc(F)cc1 (stereo not drawn) [NCGC00449825]
- SDR+ATP ([1]; M -4.48): 5.00
- SDR ([1]; M -4.48): 0.68
- SDR+ATP ([1]; M -4.96): 3.92
- SDR ([1]; M -4.96): 1.78
- SDR+ATP ([1]; M -5.44): 2.46
- SDR ([1]; M -5.44): 4.05
- SDR+ATP ([1]; M -5.91): 1.09
- SDR ([1]; M -5.91): 3.40
- SDR+ATP ([1]; M -6.39): 1.15
- SDR ([1]; M -6.39): 4.21
- SDR+ATP ([1]; M -6.87): 0.36
- SDR ([1]; M -6.87): 3.25
- SDR+ATP ([1]; M -7.35): 2.57
- SDR ([1]; M -7.35): 4.32
- SDR+ATP ([1]; M -7.82): 1.95
- SDR ([1]; M -7.82): 4.76
- SDR+ATP ([1]; M -8.30): 0.0052
- SDR ([1]; M -8.30): 4.00
- SDR+ATP ([1]; M -8.78): 1.06
- SDR ([1]; M -8.78): 4.68
- SDR+ATP ([1]; M -9.25): -0.91
- SDR ([1]; M -9.25): 3.86
- Enz ([2]; M -4.48): -1.94
- Enz ([2]; M -4.96): 0.62
- Enz ([2]; M -5.44): 4.13
- Enz ([2]; M -5.91): 4.09
- Enz ([2]; M -6.39): 3.17
- Enz ([2]; M -6.87): 4.88
- Enz ([2]; M -7.35): 4.82
- Enz ([2]; M -7.82): 4.76
- Enz ([2]; M -8.30): 4.19
- Enz ([2]; M -8.78): 1.93
- Enz ([2]; M -9.25): -2.04
